In one test the target is T1, Gal4-RORγ-LBD (Homo sapiens, UniProt P51449).
T1 construct: expressed in transfected cells
T1 sequence (P51449 269-508 limits assumed): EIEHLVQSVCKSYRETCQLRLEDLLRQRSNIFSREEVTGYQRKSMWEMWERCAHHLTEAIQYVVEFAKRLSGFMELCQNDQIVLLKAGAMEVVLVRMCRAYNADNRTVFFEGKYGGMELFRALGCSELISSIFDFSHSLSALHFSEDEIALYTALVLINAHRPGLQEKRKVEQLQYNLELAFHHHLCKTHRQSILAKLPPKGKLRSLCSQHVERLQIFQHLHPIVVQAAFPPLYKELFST
Nature of the test: Gal4-RORγ Luciferase Reporter Assay in HEK-293T Cells. In kind it is cell-based. The settings on record: HEK-293 cells, luciferase reporter, with ursolic acid. Summed up: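 HEK-293 cells were co-transfected with Gal4-RORγ-LBD and a Gal4-luciferase reporter, then exposed overnight at 37 °C to compounds with […] ursolic acid present (0.2% DMSO). Luminescence was read with One-Glo after 10 min at RT, untreated signal was set as 100, and Max Response was taken as the upper plateau of a 4-parameter logistic fit.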

The target in the next test is T2, RORγ-LBD (Homo sapiens, UniProt P51449).
T2 construct: made in house; host or cells: SF9 cells (baculovirus); used as diluted lysate
T2 sequence (P51449 269-508 limits assumed): T1 sequence (P51449 269-508 limits assumed)
The experiment in a line: RORγ-Ligand Binding Domain (LBD) TR-FRET Assay. The format is biochemical. To be noted: RORγ-LBD TR-FRET. Summed up: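 His-tagged RORγ-LBD from SF9 baculovirus lysate, ~3 nM final, in 50 mM Tris pH 7.0, 50 mM KCl, 1 mM EDTA, 0.1 mM DTT, 0.01% BSA. Biotinylated SRC1 LXXLL peptide at 200 nM final with 2 μM ursolic acid; TR-FRET read-out, 1% DMSO final.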

On to `CCOc1nn(CC)cc1S(=O)(=O)N1C[C@H](CCC(=O)O)Oc2ccc(/C=C/c3ccccc3SC)cc21` [Example 89AU, (S,E)-3-(4-((3-ethoxy-1-ethyl-1H-pyrazol-4-yl)sulfonyl)-6-(2-(methylthio)styryl)-3,4-dihydro-2H-benzo[b][1,4]oxazin-2-yl)propanoic acid], for which the concentration for a half-maximal effect (EC50) on Gal4-RORγ-LBD and on RORγ-LBD was less than 500 nM in each case.
In the case of `CCOc1nn(CC)cc1S(=O)(=O)N1C[C@H](CCC(=O)OC)Oc2ccc(/C=C/c3ccccc3SC)cc21` [Example 89AV, (S,E)-methyl 3-(4-((3-ethoxy-1-ethyl-1H-pyrazol-4-yl)sulfonyl)-6-(2-(methylthio)styryl)-3,4-dihydro-2H-benzo[b][1,4]oxazin-2-yl)propanoate], the EC50 on Gal4-RORγ-LBD and on RORγ-LBD was less than 500 nM in each case.
Turning to `CCc1ccccc1/C=C/c1ccc2c(c1)N(S(=O)(=O)c1cccc(OC(F)F)c1)C[C@H](CCC(=O)O)O2` [Example 89AW, (S,E)-3-(4-((3-(difluoromethoxy)phenyl)sulfonyl)-6-(2-ethylstyryl)-3,4-dihydro-2H-benzo[b][1,4]oxazin-2-yl)propanoic acid], the concentration giving a half-maximal response (EC50) was 500 to 5000 nM at Gal4-RORγ-LBD and less than 500 nM on RORγ-LBD.
Consider `CCc1ccccc1/C=C/c1ccc2c(c1)N(S(=O)(=O)c1cccc(OC(F)F)c1)C[C@H](CCC(=O)OC)O2` [Example 89AX, (S,E)-methyl 3-(4-((3-(difluoromethoxy)phenyl)sulfonyl)-6-(2-ethylstyryl)-3,4-dihydro-2H-benzo[b][1,4]oxazin-2-yl)propanoate], for which the figures for the concentration for a half-maximal effect (EC50) on Gal4-RORγ-LBD and at RORγ-LBD were 500 to 5000 nM and less than 500 nM, respectively.
The matching figures for `COc1ccccc1/C=C/c1ccc2c(c1)N(S(=O)(=O)c1cccc(OC(F)F)c1)C[C@H](CCC(=O)O)O2` [Example 89AY, (S,E)-3-(4-((3-(difluoromethoxy)phenyl)sulfonyl)-6-(2-methoxystyryl)-3,4-dihydro-2H-benzo[b][1,4]oxazin-2-yl)propanoic acid]: 500 to 5000 nM and less than 500 nM.
The matching figures for `COC(=O)CC[C@H]1CN(S(=O)(=O)c2cccc(OC(F)F)c2)c2cc(/C=C/c3ccccc3OC)ccc2O1` [Example 89AZ, (S,E)-methyl 3-(4-((3-(difluoromethoxy)phenyl)sulfonyl)-6-(2-methoxystyryl)-3,4-dihydro-2H-benzo[b][1,4]oxazin-2-yl)propanoate]: less than 500 nM and less than 500 nM.
The matching figures for `COC(=O)CC[C@H]1CN(S(=O)(=O)c2cccc(OC(F)F)c2)c2cc(/C=C/c3c(F)cccc3Cl)ccc2O1` [Example 89B, (S,E)-methyl 3-(6-(2-chloro-6-fluorostyryl)-4-((3-(difluoromethoxy)phenyl)sulfonyl)-3,4-dihydro-2H-benzo[b][1,4]oxazin-2-yl)propanoate]: 500 to 5000 nM and less than 500 nM.
Regarding `CCOc1nn(CC)cc1S(=O)(=O)N1C[C@H](CCC(=O)O)Oc2ccc(/C=C/c3ccccc3OC(F)(F)F)cc21` [Example 89BA, (S,E)-3-(4-((3-ethoxy-1-ethyl-1H-pyrazol-4-yl)sulfonyl)-6-(2-(trifluoromethoxy)styryl)-3,4-dihydro-2H-benzo[b][1,4]oxazin-2-yl)propanoic acid], the EC50 on Gal4-RORγ-LBD was 500 to 5000 nM; at RORγ-LBD, less than 500 nM.
In the same order, the values of `CCOc1nn(CC)cc1S(=O)(=O)N1C[C@H](CCC(=O)OC)Oc2ccc(/C=C/c3ccccc3OC(F)(F)F)cc21` [Example 89BB, (S,E)-methyl 3-(4-((3-ethoxy-1-ethyl-1H-pyrazol-4-yl)sulfonyl)-6-(2-(trifluoromethoxy)styryl)-3,4-dihydro-2H-benzo[b][1,4]-oxazin-2-yl)propanoate] are 500 to 5000 nM and less than 500 nM.
In the same order, the values of `CCOc1nn(CC)cc1S(=O)(=O)N1C[C@H](CCC(=O)O)Oc2ccc(/C=C/c3ccccc3Cl)cc21` [Example 89BC, (S,E)-3-(6-(2-chlorostyryl)-4-((3-ethoxy-1-ethyl-1H-pyrazol-4-yl)sulfonyl)-3,4-dihydro-2H-benzo[b][1,4]oxazin-2-yl)propanoic acid] are 500 to 5000 nM and less than 500 nM.
Consider `CCOc1nn(CC)cc1S(=O)(=O)N1C[C@H](CCC(=O)OC)Oc2ccc(/C=C/c3ccccc3Cl)cc21` [Example 89BD, (S,E)-methyl 3-(6-(2-chlorostyryl)-4-((3-ethoxy-1-ethyl-1H-pyrazol-4-yl)sulfonyl)-3,4-dihydro-2H-benzo[b][1,4]-oxazin-2-yl)propanoate], for which the half-maximal effective concentration (EC50) on Gal4-RORγ-LBD is greater than 10000 nM; at RORγ-LBD it was less than 500 nM.
Turning to `Cc1ccc(/C=C/c2ccc3c(c2)N(S(=O)(=O)c2cccc(OC(F)F)c2)C[C@H](CCC(=O)O)O3)cc1` [Example 89BE, (S,E)-3-(4-((3-(difluoromethoxy)phenyl)sulfonyl)-6-(4-methylstyryl)-3,4-dihydro-2H-benzo[b][1,4]oxazin-2-yl)propanoic acid], the half-maximal effective concentration (EC50) at Gal4-RORγ-LBD was greater than 10000 nM; on RORγ-LBD it was 500 to 5000 nM.
In the same order, the values of `COC(=O)CC[C@H]1CN(S(=O)(=O)c2cccc(OC(F)F)c2)c2cc(/C=C/c3ccc(C)cc3)ccc2O1` [Example 89BF, (S,E)-methyl 3-(4-((3-(difluoromethoxy)phenyl)sulfonyl)-6-(4-methylstyryl)-3,4-dihydro-2H-benzo[b][1,4]oxazin-2-yl)propanoate] are greater than 10000 nM and 500 to 5000 nM.
The matching figures for `Cc1cc(O)cc(C)c1/C=C/c1ccc2c(c1)N(S(=O)(=O)c1cccc(C(F)(F)F)c1)C[C@H](CCC(=O)O)O2` [Example 89BG, (S,E)-3-(6-(4-hydroxy-2,6-dimethylstyryl)-4-((3-(trifluoromethyl)phenyl)sulfonyl)-3,4-dihydro-2H-benzo[b][1,4]oxazin-2-yl)propanoic acid]: 500 to 5000 nM and less than 500 nM.
The matching figures for `O=C(O)CC[C@H]1CN(S(=O)(=O)c2cccc(C(F)(F)F)c2)c2cc(/C=C/c3ccc(Cl)cc3F)ccc2O1` [Example 89BH, (S,E)-3-(6-(4-chloro-2-fluorostyryl)-4-((3-(trifluoromethyl)phenyl)sulfonyl)-3,4-dihydro-2H-benzo[b][1,4]oxazin-2-yl)propanoic acid]: greater than 10000 nM and less than 500 nM.
Consider `O=C(O)CC[C@H]1CN(S(=O)(=O)c2cccc(C(F)(F)F)c2)c2cc(/C=C/c3ncccc3C(F)(F)F)ccc2O1` [Example 89BI, (S,E)-3-(4-((3-(trifluoromethyl)phenyl)sulfonyl)-6-(2-(3-(trifluoromethyl)pyridin-2-yl)vinyl)-3,4-dihydro-2H-benzo[b][1,4]oxazin-2-yl)propanoic acid], for which the half-maximal effective concentration (EC50) at Gal4-RORγ-LBD and on RORγ-LBD was less than 500 nM in each case.
On to `Cc1cccnc1/C=C/c1ccc2c(c1)N(S(=O)(=O)c1cccc(C(F)(F)F)c1)C[C@H](CCC(=O)O)O2` [Example 89BJ, (S,E)-3-(6-(2-(3-methylpyridin-2-yl)vinyl)-4-((3-(trifluoromethyl)phenyl)sulfonyl)-3,4-dihydro-2H-benzo[b][1,4]oxazin-2-yl)propanoic acid], for which the figures for the EC50 on Gal4-RORγ-LBD and on RORγ-LBD were 500 to 5000 nM and less than 500 nM, respectively.
For the compound `O=C(O)CC[C@H]1CN(S(=O)(=O)c2cccc(C(F)(F)F)c2)c2cc(/C=C/c3ncccc3Cl)ccc2O1` [Example 89BK, (S,E)-3-(6-(2-(3-chloropyridin-2-yl)vinyl)-4-((3-(trifluoromethyl)phenyl)sulfonyl)-3,4-dihydro-2H-benzo[b][1,4]oxazin-2-yl)propanoic acid], the concentration for a half-maximal effect (EC50) at Gal4-RORγ-LBD and at RORγ-LBD was less than 500 nM in each case.
For the compound `Cc1cccc2c1c(/C=C/c1ccc3c(c1)N(S(=O)(=O)c1cccc(C(F)(F)F)c1)C[C@H](CCC(=O)O)O3)nn2C` [Example 89BN, (S,E)-3-(6-(2-(1,4-dimethyl-1H-indazol-3-yl)vinyl)-4-((3-(trifluoromethyl)phenyl)sulfonyl)-3,4-dihydro-2H-benzo[b][1,4]oxazin-2-yl)propanoic acid], the half-maximal effective concentration (EC50) is 500 to 5000 nM on Gal4-RORγ-LBD and less than 500 nM at RORγ-LBD.
With `Cn1nc(/C=C/c2ccc3c(c2)N(S(=O)(=O)c2cccc(C(F)(F)F)c2)C[C@H](CCC(=O)O)O3)c2c(Cl)cccc21` [Example 89BO, (S,E)-3-(6-(2-(4-chloro-1-methyl-1H-indazol-3-yl)vinyl)-4-((3-(trifluoromethyl)phenyl)sulfonyl)-3,4-dihydro-2H-benzo[b][1,4]-oxazin-2-yl)propanoic acid], the concentration for a half-maximal effect (EC50) was 500 to 5000 nM on Gal4-RORγ-LBD and less than 500 nM at RORγ-LBD.
For `O=C(O)CC[C@H]1CN(S(=O)(=O)c2cccc(C(F)(F)F)c2)c2cc(/C=C/c3cccc(F)c3Cl)ccc2O1` [Example 89BP, (S,E)-3-(6-(2-chloro-3-fluorostyryl)-4-((3-(trifluoromethyl)phenyl)sulfonyl)-3,4-dihydro-2H-benzo[b][1,4]oxazin-2-yl)propanoic acid], the 50% effective concentration (EC50) was greater than 10000 nM on Gal4-RORγ-LBD and less than 500 nM at RORγ-LBD.
As to `COC(=O)CC[C@H]1CN(S(=O)(=O)c2cccc(C(F)(F)F)c2)c2cc(/C=C/c3cccc(F)c3Cl)ccc2O1` [Example 89BQ, (S,E)-methyl 3-(6-(2-chloro-3-fluorostyryl)-4-((3-(trifluoromethyl)phenyl)sulfonyl)-3,4-dihydro-2H-benzo[b][1,4]oxazin-2-yl)propanoate], the figures for the EC50 at Gal4-RORγ-LBD and at RORγ-LBD were 500 to 5000 nM and less than 500 nM, respectively.

The record behind these values is patent US9896441B2 (Lycera Corporation, priority 2014, dated 2018).
